Source: US20110086886A2, “INSECTICIDAL ISOXAZOLINES” (Bayer CropScience AG, priority 2006, published 2011)

Assays:
Spodoptera litura larvae = test: Test for Spodoptera litura larvae (leaf dip); assay type: in vivo; conditions: effective component concentration of 500 ppm, 3rd-instar larvae on dipped sweet potato leaves, after 7 days; for pest or weed control at 500 ppm: foliar, 168 h, read-out: insecticidal ratio
Procedure: (§1) In order to obtain a preparation of a proper active compound, 1 part by weight of an active compound was mixed with the stated amounts of solvent and emulsifier and the mixture was diluted to a specified concentration with water.
The leaves of sweat potatoes were dipped in the test solution diluted to a specified concentration with water. After these leaves were dried in air to remove the chemical solution, they were placed in a Petri dish of 9 cm in diameter, in which 10 Spodoptera litura larvae of the 3rd-instar were set free. The Petri dish was placed in a thermostatic chamber kept at 25° C. and the leaves of sweat potatoes were added after 2 days and 4 days, to examine the number of dead larvae after 7 days, thereby calculating the insecticidal ratio of the chemical solution.
In this test, an average of the results in two Petri dishes in one section was calculated.

Aulacophora femoralis = test: Test for Aulacophora femoralis (spray test); assay type: in vivo; conditions: effective component concentration of 500 ppm; 2nd-instar, dipped cucumber leaves; after 7 days
Procedure: as §1
The leaves of cucumbers were dipped in the aqueous solution diluted to a specified concentration with water. After the chemical solution was dried in air, these leaves were placed in a plastic cup, in which sterilized black soil was placed. 5 Aulacophora femoralis of the 2nd-instar were set free in the soil, to examine the number of dead insects after 7 days, thereby calculating the insecticidal ratio of the chemical solution.

Row | Molecule | insecticidal ratio (Spodoptera litura larvae) [%] | insecticidal ratio (Aulacophora femoralis) [%] | pest or weed control at 500 ppm (Spodoptera litura larvae) [%]
1 | N#Cc1cc(C2=NOC(c3cc(Cl)cc(Cl)c3)(C(F)(F)F)C2)ccc1-n1ncnn1 (stereo not shown) [Compound 171] | 100 | 100 | 
2 | FC(F)(F)c1ccc(C2(C(F)(F)F)CC(c3ccc(-n4cncn4)cc3)=NO2)cc1 (racemic) [Compound 123] | 100 |  | 
3 | O=[N+]([O-])c1cc(C2=NOC(c3cc(C(F)(F)F)cc(C(F)(F)F)c3)(C(F)(F)F)C2)ccc1-n1cnnn1 (stereo not shown) [Compound 166, 1-(4-{5-[3,5-bis(trifluoromethyl)phenyl]-5-(trifluoromethyl)-4,5-dihydroisoxazol-3-yl}-2-nitrophenyl)-1H-tetrazole] |  | 100 | 100
4 | O=[N+]([O-])c1cc(C2=NOC(c3cccc(C(F)(F)F)c3)(C(F)(F)F)C2)ccc1-n1ncnn1 (stereo not shown) [Compound 176] | 100 |  | 
5 | FC(F)(F)C1(c2cc(Cl)cc(Cl)c2)CC(c2ccc(-n3cnnn3)c(Br)c2)=NO1 (stereo not shown) [Compound 151] | 100 | 100 | 
6 | N#Cc1cc(C2=NOC(c3cccc(C(F)(F)F)c3)(C(F)(F)F)C2)ccc1-n1cnnn1 (stereo not shown) [Compound 160] | 100 | 100 | 
7 | FC(F)(F)C1(c2cc(Cl)cc(Cl)c2)CC(c2ccc(-n3cncn3)cc2)=NO1 (racemic) [Compound 91] | 100 | 100 | 
8 | Cc1cnn(-c2ccc(C3=NOC(c4cc(Cl)cc(Cl)c4)(C(F)(F)F)C3)cc2[N+](=O)[O-])c1 (stereo not shown) [Compound 24] | 100 |  | 
9 | FC(F)(F)c1cc(C(F)(F)F)cc(C2(C(F)(F)F)CC(c3ccc(-n4cncn4)c(Br)c3)=NO2)c1 (racemic) [Compound 134] | 100 | 100 | 
10 | O=[N+]([O-])c1cc(C2=NOC(c3cc(Cl)cc(Cl)c3)(C(F)(F)F)C2)ccc1-n1nccn1 (stereo not shown) [Compound 72] | 100 |  | 
11 | N#Cc1cc(C2=NOC(c3cc(Cl)cc(Cl)c3)(C(F)(F)F)C2)ccc1-n1cc(Br)cn1 (stereo not shown) [Compound 18] | 100 |  | 
12 | N#Cc1cc(C2=NOC(c3cc(Cl)cc(Cl)c3)(C(F)(F)F)C2)ccc1-n1cc([N+](=O)[O-])cn1 (stereo not shown) [Compound 21] | 100 | 100 | 
13 | O=[N+]([O-])c1cc(C2=NOC(c3cc(Cl)cc(Cl)c3)(C(F)(F)F)C2)ccc1-n1cnnn1 (stereo not shown) [Compound 154] | 100 | 100 | 
14 | Cc1cc(C2=NOC(c3cc(Cl)cc(Cl)c3)(C(F)(F)F)C2)ccc1-n1cncn1 (racemic) [Compound 99] | 100 | 100 | 
15 | FC(F)(F)C1(c2cc(Cl)cc(Cl)c2)CC(c2ccc(-n3cccn3)c(Cl)c2)=NO1 (stereo not shown) [Compound 8] | 100 |  | 
16 | COC(=O)Nc1cc(C2=NOC(c3cc(Cl)cc(Cl)c3)(C(F)(F)F)C2)ccc1-n1cncn1 (racemic) [Compound 109] | 100 | 100 | 
17 | FC(F)(F)C1(c2cccc(Cl)c2)CC(c2ccc(-n3cncn3)cc2)=NO1 (stereo not shown) [Compound 86] | 100 | 100 | 
18 | N#Cc1cc(C2=NOC(c3cc(Cl)cc(Cl)c3)(C(F)(F)F)C2)ccc1-n1cc(N)cn1 (stereo not shown) [Compound 181] | 100 | 100 | 
19 | O=[N+]([O-])c1cc(C2=NOC(c3cccc(C(F)(F)F)c3)(C(F)(F)F)C2)ccc1-n1cnnn1 (stereo not shown) [Compound 161] | 100 | 100 | 
20 | O=[N+]([O-])c1cc(C2=NOC(c3cc(C(F)(F)F)cc(C(F)(F)F)c3)(C(F)(F)F)C2)ccc1-n1cncn1 (racemic) [Compound 136] | 100 | 100 | 
21 | CCC(=O)Nc1cc(C2=NOC(c3cc(Cl)cc(Cl)c3)(C(F)(F)F)C2)ccc1-n1cncn1 (racemic) [Compound 107] | 100 | 100 | 
22 | N#Cc1cc(C2=NOC(c3cc(C(F)(F)F)cc(C(F)(F)F)c3)(C(F)(F)F)C2)ccc1-n1cnnn1 (stereo not shown) [Compound 165] | 100 | 100 | 
23 | FC(F)(F)c1cc(C2=NOC(c3cc(Cl)cc(Cl)c3)(C(F)(F)F)C2)ccc1-n1cncn1 (racemic) [Compound 100] | 100 | 100 | 
24 | Fc1cc(C2=NOC(c3cc(Cl)cc(Cl)c3)(C(F)(F)F)C2)ccc1-n1cncn1 (racemic) [Compound 93] | 100 |  | 
25 | O=[N+]([O-])c1cc(C2=NOC(c3cc(Cl)cc(Cl)c3)(C(F)(F)F)C2)ccc1-n1ccnn1 (stereo not shown) [Compound 64] |  | 100 | 
26 | FC(F)(F)C1(c2cc(Cl)cc(Cl)c2)CC(c2ccc(-n3cncn3)c(I)c2)=NO1 (racemic) [Compound 98] | 100 | 100 | 

Row | Molecule | insecticidal ratio (Spodoptera litura larvae) [%] | insecticidal ratio (Aulacophora femoralis) [%] | pest or weed control at 500 ppm (Spodoptera litura larvae) [%]
27 | N#Cc1cc(C2=NOC(c3cc(C(F)(F)F)cc(C(F)(F)F)c3)(C(F)(F)F)C2)ccc1-n1cc([N+](=O)[O-])cn1 (stereo not shown) [Compound 47] | 100 |  | 
28 | O=[N+]([O-])c1cc(C2=NOC(c3cc(Cl)cc(Cl)c3)(C(F)(F)F)C2)ccc1-n1cc(Br)cn1 (stereo not shown) [Compound 27] | 100 |  | 
29 | N#Cc1cc(C2=NOC(c3cc(Cl)cc(Cl)c3)(C(F)(F)F)C2)ccc1-n1cc(I)cn1 (stereo not shown) [Compound 19] | 100 |  | 
30 | O=[N+]([O-])c1cc(C2=NOC(c3cccc(Cl)c3)(C(F)(F)F)C2)ccc1-n1cnnn1 (racemic) [Compound 147] |  | 100 | 
31 | O=[N+]([O-])c1cc(C2=NOC(c3cc(Cl)cc(Cl)c3)(C(F)(F)F)C2)ccc1-n1cc(I)cn1 (stereo not shown) [Compound 28] | 100 |  | 
32 | FC(F)(F)C1(c2cc(Cl)cc(Cl)c2)CC(c2ccc(-n3cc(Br)cn3)cc2)=NO1 (stereo not shown) [Compound 5] | 100 |  | 
33 | FC(F)(F)C1(c2cc(Cl)cc(Cl)c2)CC(c2ccc(-n3cc(Cl)cn3)cc2)=NO1 (stereo not shown) [Compound 4] | 100 |  | 
34 | O=[N+]([O-])c1cc(C2=NOC(c3cc(Cl)cc(Cl)c3)(C(F)(F)F)C2)ccc1-n1cc(Cl)cn1 (stereo not shown) [Compound 26] | 100 |  | 
35 | O=[N+]([O-])c1cc(C2=NOC(c3cc(Cl)cc(Cl)c3)(C(F)(F)F)C2)ccc1-n1cc(C(F)(F)F)cn1 (stereo not shown) [Compound 29] | 100 |  | 
36 | FC(F)(F)C1(c2cc(Cl)cc(Cl)c2)CC(c2ccc(-n3cnnn3)c(I)c2)=NO1 (stereo not shown) [Compound 152] | 100 |  | 
37 | FC(F)(F)C1(c2cc(Cl)cc(Cl)c2)CC(c2ccc(-n3cccn3)cc2)=NO1 (stereo not shown) [Compound 2] | 100 |  | 
38 | Nc1cc(C2=NOC(c3cc(Cl)cc(Cl)c3)(C(F)(F)F)C2)ccc1-n1cncn1 (stereo not shown) [Compound 105, 5-[5-(3,5-dichlorophenyl)-5-(trifluoromethyl)-4,5-dihydroisoxazol-3-yl]-2-(1H-1,2,4-triazol-1-yl)aniline] |  |  | 100
39 | 1-(4-{5-[3,5-bis(trifluoromethyl)phenyl]-5-(trifluoromethyl-4,5-dihydroisoxazol-3-yl}-2-nitrophenyl)-2H-tetrazole [Compound 178] | 100 |  | 
40 | O=[N+]([O-])c1cc(C2=NOC(c3cc(Cl)cc(Cl)c3)(C(F)(F)F)C2)ccc1-n1ccnc1 (stereo not shown) [Compound 52] | 100 |  | 
41 | FC(F)(F)C1(c2cc(Cl)cc(Cl)c2)CC(c2ccc(-n3cncn3)cc2Cl)=NO1 (racemic) [Compound 96] | 100 |  | 
42 | O=[N+]([O-])c1cc(C2=NOC(c3cc(F)cc(F)c3)(C(F)(F)F)C2)ccc1-n1cncn1 (stereo not shown) [Compound 85] |  | 100 | 
43 | O=[N+]([O-])c1cc(C2=NOC(c3cc(Cl)cc(Cl)c3)(C(F)(F)F)C2)ccc1-n1cccn1 (stereo not shown) [Compound 23] | 100 |  | 
44 | FC(F)(F)C1(c2cc(Cl)cc(Cl)c2)CC(c2ccc(-n3cnnc3)cc2)=NO1 (stereo not shown) [Compound 141, 4-{4-[5-(3,5-dichlorophenyl)-5-(trifluoromethyl)-4,5-dihydroisoxazol-3-yl]phenyl}-4H-1,3,4-triazole] |  |  | 100
45 | N#Cc1cc(C2=NOC(c3cc(Cl)cc(Cl)c3)(C(F)(F)F)C2)ccc1-n1cc(F)cn1 (stereo not shown) [Compound 16] | 100 |  | 
46 | FC(F)(F)C1(c2cc(Cl)cc(Cl)c2)CC(c2ccc(-n3ccnc3)cc2)=NO1 (stereo not shown) [Compound 48] | 100 |  | 
47 | N#Cc1cc(C2=NOC(c3ccccc3)(C(F)(F)F)C2)ccc1-n1cncn1 (stereo not shown) [Compound 80] |  | 100 | 
48 | FC(F)(F)c1cc(C(F)(F)F)cc(C2(C(F)(F)F)CC(c3ccc(-n4cnnn4)cc3)=NO2)c1 (stereo not shown) [Compound 162] | 100 |  | 
49 | FC(F)(F)c1cc(C(F)(F)F)cc(C2(C(F)(F)F)CC(c3ccc(-n4cncn4)c(Cl)c3)=NO2)c1 (racemic) [Compound 133] | 100 |  | 
50 | O=[N+]([O-])c1cnn(-c2ccc(C3=NOC(c4cc(Cl)cc(Cl)c4)(C(F)(F)F)C3)cc2Br)c1 (stereo not shown) [Compound 12] | 100 |  | 
51 | N#Cc1cnn(-c2ccc(C3=NOC(c4cc(Cl)cc(Cl)c4)(C(F)(F)F)C3)cc2)c1 (stereo not shown) [Compound 7] | 100 |  | 
52 | N#Cc1cc(C2=NOC(c3cc(Cl)cc(Cl)c3)(C(F)(F)F)C2)ccc1-n1cccn1 (stereo not shown) [Compound 13, 5-[5-(3,5-dichlorophenyl)-5-(trifluoromethyl)-4,5-dihydroisoxazol-3-yl]-2-(1H-pyrazol-1-yl)benzonitrile] |  |  | 100
